Measured values as given in patent publication US8173654B2, “Triazolopyridazine compounds” (Janssen Pharmaceutica N.V., priority 2005, dated 2012).

Legend:
[1] = system: U87MG glioblastoma tumors; assay: U87MG glioblastoma tumor xenograft model (tumor growth inhibition); assay type: in vivo, athymic nude mice; conditions: for decrease of mean tumor volume compared to vehicle-treated group: Day 21, p<0.001
Protocol: The U87MG glioblsatoma cell line (Piedmont Research Center LLC) expresses the c-Met receptor and responds to Human Growth Factor (HGF). This study investigated whether treatment with an inhibitor of c-Met is efficacious against the U87MG glioblastoma tumor xenograft model. This study utilized a tumor growth inhibition (TGI) assay to test per os (p.o.) compound monotherapy in groups of fifteen nude mice. A control group was treated with vehicle, 20% Hydroxypropyl Beta-Cyclodextrin (HPBCD). All treatments began on Day 1 (D1) in mice bearing established subcutaneous (s.c.) U87MG tumors.
Female athymic nude mice (Harlan) were 10-11 weeks old with a BW range of 18.1-25.0 g on D1 of the study. The animals were fed ad libitum water (reverse osmosis, 1 ppm Cl) and NIH 31 Modified and Irradiated Lab Diet® consisting of 18.0% crude protein, 5.0% crude fat, and 5.0% crude fiber. The mice were housed on irradiated ALPHA-dri® Bed-o-cobs® Laboratory Animal Bedding in static microisolators on a 12-hour light cycle at 21-22° C. (70-72° F.) and 40-60% humidity. All animals were housed in a Laboratory Animal Medicine facility that is fully accredited by the American Association for Assessment and Accreditation of Laboratory Animal Care (AAALAC). All procedures involving animals were conducted in compliance with the NIH Guide for the Care and Use of Laboratory Animals and all protocols were approved by an Internal Animal Care and Use Committee (IACUC).
Xenografts were initiated from U87MG human glioblastoma tumor fragments maintained by serial transplantation in athymic nude mice. Each test mouse received a subcutaneous U87MG tumor fragment (1 mm^3) implanted in the right flank, and the growth of tumors was monitored as the average size approached 200 mm^3. Twelve days later, on Day 1 of the study, the animals were sorted into 4 groups (n=12-15 mice/group) with individual tumor volumes ranging from 172-352 mm^3 and group mean tumor volumes of 216 mm^3. Tumor volume was calculated using the formula:
[formula] where w=width and l=length in mm of the tumor. Tumor weight may be estimated with the assumption that 1 mg is equivalent to 1 mm^3 of tumor volume. Drug Treatment
Dosing solutions of compounds of the present invention were prepared fresh weekly in a vehicle consisting of 20% Hydroxypropyl Beta-Cyclodextrin (HPBCD) in water. In all groups, the dosing volume of 0.2 mL/20-g mouse was scaled to the body weight of each animal. Doses were given to allow for the HCl salt form of the compound.
TGI was calculated from the difference between the median tumor volumes of vehicle-treated and drug-treated mice, expressed as a percentage of the median tumor volume of the vehicle-treated control group, by the following relation:
The MTV (n) is defined as the median tumor volume (MTV) for the number of animals, n, remaining in the study on that day.
Animals were weighed daily for the first five days of the study and then twice weekly. The mice were examined frequently for overt signs of any adverse, drug-related side effects, and clinical signs of toxicity were recorded when observed. Acceptable toxicity is defined as a group mean body-weight (BW) loss of less than 20% during the study, and not more than one treatment-related (TR) death among ten animals. A death is classified as TR if it is attributable to treatment side effects as evidenced by clinical signs and/or necropsy, or due to unknown causes during the dosing period or within 10 days of the last dose. A death is classified as non treatment-related (NTR) if there is no evidence that the death was related to drug side effects. A death is classified as non treatment-related unknown (NTRu) if the cause of death is unknown.
The Mann-Whitney U-test, for analysis of medians, was used to determine the statistical significance of the difference between the MTVs. Prism 3.03 (GraphPad) for Windows was used for the statistical analyses and graphic presentations. […]

c-Met [2] = biological target: T1, c-Met (Homo sapiens, UniProt P08581); assay: Delfia autophosphorylation kinase assay on the c-Met; assay type: biochemical; set-up: The purified His6 tagged cytoplasmic domain of c-Met was diluted to a concentration of 500 ng/ml; host or cells: Sf9 insect cells (baculovirus, pFastBacHTa); conditions: His6 tagged cytoplasmic domain of c-Met, 1 μM ATP; read-out: cMet Delfia autophos IC-50
Method in brief: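 Time-resolved fluorescence tracked autophosphorylation of the His6-tagged c-Met cytoplasmic domain, dispensed at 500 ng/ml onto nickel-chelate plates. Reaction buffer held 1 μM ATP, 10 mM MgCl2, vanadate and DTT at pH 8.0, for 1 h at room temperature.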
Target sequence in this assay (P08581 956-1390 limits assumed): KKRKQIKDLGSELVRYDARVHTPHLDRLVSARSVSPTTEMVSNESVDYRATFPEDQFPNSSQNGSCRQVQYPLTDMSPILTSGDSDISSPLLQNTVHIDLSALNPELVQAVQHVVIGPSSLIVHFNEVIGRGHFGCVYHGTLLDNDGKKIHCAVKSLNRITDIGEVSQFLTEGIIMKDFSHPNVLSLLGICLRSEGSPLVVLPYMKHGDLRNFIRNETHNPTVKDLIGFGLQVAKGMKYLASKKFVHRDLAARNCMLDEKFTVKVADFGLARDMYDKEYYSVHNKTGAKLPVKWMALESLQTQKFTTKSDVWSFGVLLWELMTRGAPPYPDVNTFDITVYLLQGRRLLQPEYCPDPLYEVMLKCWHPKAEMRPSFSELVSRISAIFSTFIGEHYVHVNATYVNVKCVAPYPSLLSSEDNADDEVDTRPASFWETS

c-Met [3] = biological target: T1, c-Met; assay: Cell based ELISA assay for HGF stimulated c-Met phosphorylation in S114 cells; set-up: expressed in transfected cells; host or cells: S114 (murine NIH 3T3 derived); conditions: read-out: c-Met Cell ELISA IC-50
Protocol: A cell based ELISA assay was developed to evaluate the ability of compounds to inhibit HGF stimulated c-Met phosphorylation in cells.
S114 cells were seeded to a 96 well tissue culture treated dish at a concentration of 5×10^4 per well. After a 16-20 hour incubation, culture medium was removed and replaced with serum free medium supplemented with 0.5% BSA. Test compound was then added and incubated with the cells for 60 minutes, followed by the addition of 1 μl HGF at […] for 15 minutes. […] Following another 1 hour incubation at room temperature the plates were washed three times with Delfia wash buffer (Perkin Elmer). After the final wash, […] of Delfia enhancer solution (Perkin Elmer) was added and allowed to incubate for 60 minutes. Plates were read on an LJL Analyst instrument (Molecular Devices; Sunnyvale, Calif.) with filter settings of 360 excitation, 620 emission, and 410 dichroic. IC50 values were calculated using Graphpad Prism software (Graphpad Software; San Diego, Calif.).
Target sequence in this assay (P08581 25-1390): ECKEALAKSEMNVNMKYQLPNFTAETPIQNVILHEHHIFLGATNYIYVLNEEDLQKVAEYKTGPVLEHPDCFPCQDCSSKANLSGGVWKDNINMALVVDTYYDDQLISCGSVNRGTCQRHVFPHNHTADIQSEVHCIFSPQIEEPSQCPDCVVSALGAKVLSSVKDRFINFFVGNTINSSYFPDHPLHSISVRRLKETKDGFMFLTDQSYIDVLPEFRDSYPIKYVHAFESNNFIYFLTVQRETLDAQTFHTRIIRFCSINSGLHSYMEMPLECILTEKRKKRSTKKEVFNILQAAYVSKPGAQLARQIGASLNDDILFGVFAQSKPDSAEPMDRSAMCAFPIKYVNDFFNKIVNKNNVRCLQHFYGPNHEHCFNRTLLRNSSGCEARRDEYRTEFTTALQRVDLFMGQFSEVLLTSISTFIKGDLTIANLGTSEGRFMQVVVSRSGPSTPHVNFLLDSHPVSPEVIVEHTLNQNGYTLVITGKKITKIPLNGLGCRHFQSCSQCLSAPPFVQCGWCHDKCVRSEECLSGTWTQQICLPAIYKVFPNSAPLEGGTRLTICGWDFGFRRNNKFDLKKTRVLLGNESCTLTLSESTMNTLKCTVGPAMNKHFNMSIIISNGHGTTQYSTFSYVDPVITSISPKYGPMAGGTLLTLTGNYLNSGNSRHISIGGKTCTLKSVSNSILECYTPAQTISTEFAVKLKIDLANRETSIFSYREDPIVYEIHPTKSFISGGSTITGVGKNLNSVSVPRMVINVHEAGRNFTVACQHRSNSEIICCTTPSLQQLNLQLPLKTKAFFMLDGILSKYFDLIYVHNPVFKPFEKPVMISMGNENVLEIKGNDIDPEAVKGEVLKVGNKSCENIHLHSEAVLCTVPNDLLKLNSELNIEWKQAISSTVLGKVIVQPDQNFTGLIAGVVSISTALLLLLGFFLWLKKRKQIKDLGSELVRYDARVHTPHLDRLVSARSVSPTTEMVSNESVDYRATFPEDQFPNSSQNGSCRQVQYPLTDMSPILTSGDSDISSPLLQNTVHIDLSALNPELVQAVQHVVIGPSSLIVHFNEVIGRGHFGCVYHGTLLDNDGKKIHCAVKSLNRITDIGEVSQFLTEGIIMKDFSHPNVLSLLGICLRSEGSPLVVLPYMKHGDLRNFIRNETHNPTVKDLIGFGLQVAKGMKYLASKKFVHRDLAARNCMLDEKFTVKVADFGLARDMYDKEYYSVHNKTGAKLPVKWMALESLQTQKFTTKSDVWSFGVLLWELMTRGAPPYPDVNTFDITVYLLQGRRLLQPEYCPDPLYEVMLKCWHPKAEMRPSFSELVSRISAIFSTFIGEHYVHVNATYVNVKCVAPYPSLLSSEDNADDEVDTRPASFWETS

Cn1cc(-c2ccc3nnc(Cc4ccc5ncccc5c4)n3n2)cn1 [Example 1, 6-[6-(1-Methyl-1H-pyrazol-4-yl)-[1,2,4]triazolo[4,3-b]pyridazin-3-ylmethyl]-quinoline]
decrease of mean tumor volume compared to vehicle-treated group ([1]; 30 mg/kg p.o. b.i.d., 21 consecutive days): 66% | decrease of mean tumor volume compared to vehicle-treated group ([1]; 50 mg/kg p.o. b.i.d., 21 consecutive days): 97% | tumor regression ([1]; 50 mg/kg p.o. b.i.d., 21 days): Tumor regression was observed | inhibition of growth of U87MG tumors ([1]; 30 and 50 mg/kg p.o. b.i.d., 21 consecutive days): statistically significant, dose-dependent inhibition of growth

Clc1ccc(-c2ccc3nnc(Cc4ccc5ncccc5c4)n3n2)s1 [Example 77]
IC50 (c-Met [2]): 1.5 nM | IC50 (c-Met [3]): 2 nM

Cc1nc2ccc(-c3ccc4nnc(Cc5ccc6ncccc6c5)n4n3)cc2[nH]1 [Example 79, 6-[6-(2-Methyl-3H-benzoimidazol-5-yl)-[1,2,4]triazolo[4,3-b]pyridazin-3-ylmethyl]-quinoline]
IC50 (c-Met [2]): 30 nM | IC50 (c-Met [3]): 3300 nM

Cn1ccc2cc(-c3ccc4nnc(Cc5ccc6ncccc6c5)n4n3)ccc21 [Example 85, 6-[6-(1-Methyl-1H-indol-5-yl)-[1,2,4]triazolo[4,3-b]pyridazin-3-ylmethyl]-quinoline]
IC50 (c-Met [2]): 53 nM | IC50 (c-Met [3]): 260 nM

Cc1cc(-c2ccc3nnc(Cc4ccc5ncccc5c4)n3n2)ccn1 [Example 87, 6-[6-(2-Methyl-pyridin-4-yl)-[1,2,4]triazolo[4,3-b]pyridazin-3-ylmethyl]-quinoline]
IC50 (c-Met [2]): 0.6 nM | IC50 (c-Met [3]): 4 nM

Nc1ccc(-c2ccc3nnc(Cc4ccc5ncccc5c4)n3n2)cn1 [Example 88, 5-(3-Quinolin-6-ylmethyl-[1,2,4]triazolo[4,3-b]pyridazin-6-yl)-pyridin-2-ylamine]
IC50 (c-Met [2]): 2 nM | IC50 (c-Met [3]): 50 nM

COc1ccc(-c2ccc3nnc(Cc4ccc5ncccc5c4)n3n2)cn1 [Example 89, 6-[6-(6-Methoxy-pyridin-3-yl)-[1,2,4]triazolo[4,3-b]pyridazin-3-ylmethyl]-quinoline]
IC50 (c-Met [2]): 4 nM | IC50 (c-Met [3]): 230 nM

O=c1ccc(-c2ccc3nnc(Cc4ccc5ncccc5c4)n3n2)c[nH]1 [Example 90, 5-(3-Quinolin-6-ylmethyl-[1,2,4]triazolo[4,3-b]pyridazin-6-yl)-1H-pyridin-2-one]
IC50 (c-Met [2]): 3 nM | IC50 (c-Met [3]): 540 nM

Cc1nc2ccc(Cc3nnc4ccc(-c5cccnc5)nn34)cc2s1 [Example 92, 3-(2-Methyl-benzothiazol-6-ylmethyl)-6-pyridin-3-yl-[1,2,4]triazolo[4,3-b]pyridazine]
IC50 (c-Met [2]): 4 nM | IC50 (c-Met [3]): 10 nM

Cn1cc(-c2ccc3nnc(Cc4ccc5nc(N)sc5c4)n3n2)cn1 [Example 93, 6-[6-(1-Methyl-1H-pyrazol-4-yl)-[1,2,4]triazolo[4,3-b]pyridazin-3-ylmethyl]-benzothiazol-2-ylamine]
IC50 (c-Met [2]): 4 nM | IC50 (c-Met [3]): 130 nM

CN(C)c1nc2ccc(Cc3nnc4ccc(-c5cnn(C)c5)nn34)cc2s1 [Example 94, Dimethyl-{6-[6-(1-methyl-1H-pyrazol-4-yl)-[1,2,4]triazolo[4,3-b]pyridazin-3-ylmethyl]-benzothiazol-2-yl}-amine]
IC50 (c-Met [2]): 30 nM | IC50 (c-Met [3]): 640 nM

Clc1cc(-c2ccc3nnc(Cc4ccc5ncccc5c4)n3n2)ccn1 [Example 95, 6-[6-(2-Chloro-pyridin-4-yl)-[1,2,4]triazolo[4,3-b]pyridazin-3-ylmethyl]-quinoline]
IC50 (c-Met [2]): 1 nM | IC50 (c-Met [3]): 9 nM

N#Cc1ccc(-c2ccc3nnc(Cc4ccc5ncccc5c4)n3n2)cn1 [Example 96, 5-(3-Quinolin-6-ylmethyl-[1,2,4]triazolo[4,3-b]pyridazin-6-yl)-pyridine-2-carbonitrile]
IC50 (c-Met [2]): 12 nM | IC50 (c-Met [3]): 160 nM

C#Cc1cc(-c2ccc3nnc(C(F)(F)c4ccc5ncccc5c4)n3n2)ccn1 [Example 100, 6-{[6-(2-Ethynyl-pyridin-4-yl)-[1,2,4]triazolo[4,3-b]pyridazin-3-yl]-difluoro-methyl}-quinoline]
IC50 (c-Met [2]): 5 nM | IC50 (c-Met [3]): 140 nM

FC(F)(c1ccc2ncccc2c1)c1nnc2ccc(-c3ccnc(Cl)c3)nn12 [Example 100b, 6-{[6-(2-Chloro-pyridin-4-yl)-[1,2,4]triazolo[4,3-b]pyridazin-3-yl]-difluoro-methyl}-quinoline]
IC50 (c-Met [2]): 2 nM | IC50 (c-Met [3]): 34 nM

N#Cc1cc(-c2ccc3nnc(C(F)(F)c4ccc5ncccc5c4)n3n2)ccn1 [Example 101, 4-[3-(Difluoro-quinolin-6-yl-methyl)-[1,2,4]triazolo[4,3-b]pyridazin-6-yl]-pyridine-2-carbonitrile]
IC50 (c-Met [2]): 1 nM | IC50 (c-Met [3]): 120 nM

CN1CCN(C(=O)c2ccc(-c3ccc4nnc(C(F)(F)c5ccc6occc6c5)n4n3)s2)CC1 [Example 102, {5-[3-(Benzofuran-5-yl-difluoro-methyl)-[1,2,4]triazolo[4,3-b]pyridazin-6-yl]-thiophen-2-yl}-(4-methyl-piperazin-1-yl)-methanone]
IC50 (c-Met [2]): 3 nM | IC50 (c-Met [3]): 79 nM

CN1CCN(C(=O)c2ccc(-c3ccc4nnc(C(F)(F)c5ccc6c(c5)CCO6)n4n3)s2)CC1 [Example 103, (5-{3-[(2,3-Dihydro-benzofuran-5-yl)-difluoro-methyl]-[1,2,4]triazolo[4,3-b]pyridazin-6-yl}-thiophen-2-yl)-(4-methyl-piperazin-1-yl)-methanone]
IC50 (c-Met [2]): 4 nM | IC50 (c-Met [3]): 210 nM
